{"source": "patent US8912156B1", "about": "“Markers for and methods of targeting tumor stem cells” (Whitehead Institute for Biomedical Research, priority 2011, dated 2014)", "key": {"HMLER cells [1]": {"system": "HMLER cells", "assay": "Mammosphere (tumorsphere) formation of HMLER cells after short-term drug treatment", "type": "cell-based, human", "conditions": "24 hours treatment, 24 hours recovery, 7 days drug-free sphere culture", "method": "(§1) Nor was any difference observed between BPLER and HMLER cells with paclitaxel or 5-fluorouracil (FIG. 3B). As noted above, tumorsphere formation capacity correlates with TSC subpopulations. With the tumorsphere assay employed, a single tumor cell can form a multicellular tumorsphere in suspension. To assess the short term effect of drug treatment, drugs were removed after treating the tumor cells in routine 2D culture conditions for 24 hours, and after a recovery period of 24 hours tumorsphere cultures were suspended in a medium free of drugs for 7 days.\n(§2) BPLER and HMLER cells were maintained in WIT-T (Stemgent) and MGEM (Lonza) medium at 37° C. and 5% CO2. The remaining cell lines were grown in DMEM/F12 (Gibco) with 10% fetal bovine serum (FBS) at 37° C. and 5% CO2. The BPLER cells were grown on Primaria plasticware (BD Biosciences). The remaining cells were grown on standard plasticware (Falcon). The mammospheres were maintained in a 1:1 ratio of WIT-T/MEGM (less bovine pituitary extract) using 2% B27 (Invitrogen), 20 ng/ml EGF, 20 ng/ml bFGF (BD Biosciences), 4 ug/ml heparin (Sigma), and 0.5% methyl cellulose. Sphere formation experiments were carried out by plating 15,000-20,000 cells/well into 6-well ultra-low attachment plates (Corning). The cells were fed at days 1, 3, and 5, and spheres were counted at day 7.\n(§3) Drug treatment experiments were performed in a 1:1 ratio of WIT-T/MEGM media. […] To evaluate the drug effect on 2D proliferation of BPLER and HMLER cells, the cells were plated at 125,000 cells/well in 6-well Primaria plates. Drug-containing media was added to each well after 24 hours. The cells were treated continuously for 4 days with drug-containing media changes each day. Cell number was counted with a hemocytometer after 4 days of treatment. To evaluate the drug effect on BPLER and HMLER cell mammosphere formation, cells were plated at 50% confluence in Primaria flasks. After 24 hours, drug-containing media was added to each flask. After 24 hours of treatment with the drug-containing media, the cells recovered for 24 hours in a drug-free media. […]"}, "HMLER cells [2]": {"system": "HMLER cells", "assay": "Drug effect on 2D proliferation of HMLER cells", "type": "cell-based, human", "conditions": "only when the drugs were present", "method": "as §2\nas §3, with “flasks.” for “flasks. After 24 hours, drug-containing media was added to each flask. After 24 hours of treatment with the drug-containing media, the cells recovered for 24 hours in a drug-free media.”"}, "BPLER cells [3]": {"system": "BPLER cells", "assay": "Mammosphere (tumorsphere) formation of BPLER cells after short-term drug treatment", "type": "cell-based, human", "conditions": "for BPLER cell capacity to form mammospheres (tumorsphere formation): 24 hours treatment, 24 hours recovery, 7 days drug-free sphere culture; for difference in response between BPLER and HMLER cells: BPLER vs HMLER", "method": "as §1, §2\nDrug treatment experiments were performed in a 1:1 ratio of WIT-T/MEGM media. […] To evaluate the drug effect on 2D proliferation of BPLER and HMLER cells, the cells were plated at 125,000 cells/well in 6-well Primaria plates. Drug-containing media was added to each well after 24 hours. The cells were treated continuously for 4 days with drug-containing media changes each day. Cell number was counted with a hemocytometer after 4 days of treatment. To evaluate the drug effect on BPLER and HMLER cell mammosphere formation, cells were plated at 50% confluence in Primaria flasks. After 24 hours, drug-containing media was added to each flask. After 24 hours of treatment with the drug-containing media, the cells recovered for 24 hours in a drug-free media. Cells were then plated for the mammosphere protocol as described previously."}, "BPLER cells [4]": {"system": "BPLER cells", "type": "cell-based, human", "conditions": "only when the drugs were present", "method": "as §2\nas §3, with “flasks.” for “flasks. After 24 hours, drug-containing media was added to each flask. After 24 hours of treatment with the drug-containing media, the cells recovered for 24 hours in a drug-free media.”"}, "[5]": {"system": "other Class I and Class II HDACs", "conditions": "TSA treatment of breast tumor cells; cited from earlier work"}}, "data": [{"smiles": "O=c1[nH]cc(F)c(=O)[nH]1", "note": "[5-fluorouracil]", "values": [{"measurement": "HMLER cell capacity to form mammospheres (tumorsphere formation)", "setting": "HMLER cells [1]", "result": "not inhibited"}, {"measurement": "cytotoxic effect on HMLER cells", "setting": "HMLER cells [2]", "result": "cytotoxic effect"}, {"measurement": "BPLER cell capacity to form mammospheres (tumorsphere formation)", "setting": "BPLER cells [3]", "result": "not inhibited"}, {"measurement": "difference in response between BPLER and HMLER cells", "setting": "BPLER cells [3]", "result": "no difference"}, {"measurement": "cytotoxic effect on BPLER cells", "setting": "BPLER cells [4]", "result": "cytotoxic effect"}]}, {"smiles": "CC(/C=C/C(=O)NO)=C\\[C@@H](C)C(=O)c1ccc(N(C)C)cc1", "note": "[TSA, trichostatin A]", "values": [{"measurement": "HMLER cell capacity to form mammospheres (tumorsphere formation)", "setting": "HMLER cells [1]", "result": "did not affect"}, {"measurement": "BPLER cell capacity to form mammospheres (tumorsphere formation)", "setting": "BPLER cells [3]", "result": "significantly decreased"}, {"measurement": "changes in expression of other Class I and Class II HDACs", "setting": "[5]", "result": "less than 2 fold"}]}, {"smiles": "CC(=O)O[C@H]1C(=O)[C@@]2(C)[C@H]([C@H](OC(=O)c3ccccc3)[C@]3(O)C[C@H](OC(=O)[C@H](O)[C@@H](NC(=O)c4ccccc4)c4ccccc4)C(C)=C1C3(C)C)[C@]1(OC(C)=O)CO[C@@H]1C[C@@H]2O", "note": "[paclitaxel]", "values": [{"measurement": "HMLER cell capacity to form mammospheres (tumorsphere formation)", "setting": "HMLER cells [1]", "result": "not inhibited"}, {"measurement": "cytotoxic effect on HMLER cells", "setting": "HMLER cells [2]", "result": "cytotoxic effect"}, {"measurement": "BPLER cell capacity to form mammospheres (tumorsphere formation)", "setting": "BPLER cells [3]", "result": "not inhibited"}, {"measurement": "difference in response between BPLER and HMLER cells", "setting": "BPLER cells [3]", "result": "no difference"}, {"measurement": "cytotoxic effect on BPLER cells", "setting": "BPLER cells [4]", "result": "cytotoxic effect"}]}]}
